# Experimental data: patent US5985893A, “Physically stable solid form of a fluoroquinolone” (Pharmacia & Upjohn Company, priority 1996, dated 1999)
# “And” between values parts separate entries of the source, which are not always exact repeats. Equal entries are not always repeated.
# Tests used:
# [1] = Solubility of the quinolone, Forms I and III, in ethyl acetate; type: physicochemical; settings: 20° C, two values given
# Procedure: Bulk drug samples are prepared by dissolving the material in mobile phase at a final concentration of approximately 0.25 to 0.5 mg/ml. For solubility experiments, 100 mcl aliquots of ethyl acetate solutions are withdrawn and placed directly into HPLC autosampler vials. A gentle stream of nitrogen gas is used to evaporate the solvent in the sample vials. The solids are reconstituted with 0.5 ml of HPLC mobile phase prior to analysis.
# Solubilities are measured in ethyl acetate. Five to ten milligrams of bulk drug are placed into an amber autoinjector vial, and 3.0 ml of ethyl acetate are added. The vials are capped and shaken for intervals up to 24 hours at room temperature using a Burrell model BB wrist-action shaker. Aliquots are withdrawn from the supernate after centrifugation. The final sample is taken from a quiescent solution which had not been shaken since the 24 hour timepoint.
# The solubilities of Forms I and III were determined in ethyl acetate at room temperature; the solubility data for each form was gathered simultaneously, to assure that each form's solubility was measured under identical conditions. Ethyl acetate was employed as an aprotic solvent yielding fairly low equilibrium solubilities of the quinolone; ethyl acetate has been used to evaluate the difference in free energy of polymorphic forms of an antinociceptive drug, as described by K. Raghavan et al., J. Pharm. Biomed. Anal. Vol.12 (6), pp. 777-785 (1994). Under the assumption that the solubilities in TABLE S are consistent with the dilute solution limit, we can use the following expression to calculate the difference in Gibbs free energy between Form I and Form III: [formula] where "sx " is the solubility of Form x in a sufficiently dilute solution, R is the gas constant, and T is the absolute temperature. Using the data in Table 1, we find that the Gibbs free energy of Form III is lower than that of Form I by 7.7±0.2 kJ/mole.
# [2] = Isothermal calorimetry (ITC) of Form I to Form III conversion; type: physicochemical
# Procedure: Isothermal calorimetry (ITC) experiments are conducted using a model 2277 microcalorimeter made by ThermoMetric (see Suurkuusk, J.:Wadso, I. Chem. Scr. (1982) Vol. 20 pp. 155-163). The Digitam® version 2.1 software from Thermometric is used to display the data and to integrate the total heat obtained from the samples. Heat flow is monitored as a function of time at 60° C. and at 40° C. Both glass and stainless steel ampules are used to hold the solid samples and the reference material (quartz sand). Samples are thermally equilibrated for a period ranging from 15 minutes (glass ampules) to 1 hour (stainless steel ampules) prior to recording thermal data. The weight of the samples ranged from about 75 to 300 mg. Samples in glass ampules are equilibrated via the isopiestic method at 53% or 75% RH in chambers containing saturated solutions of sodium chloride or calcium nitrate tetrahydrate. The ampules are capped immediately after removing the samples. Other samples are equilibrated using "microhygrostats" containing small quantities of saturated salt solutions which are sealed within the ampules. This arrangement provided for nearly constant relative humidity as the crystal conversion proceeded.
# We therefore studied the transformation of samples after equilibration at […] and 75% RH. […] HPLC analysis of the reaction product confirmed that the 60° C. ITC profiles contained negligible contributions from chemical decomposition.
# A detailed explanation of FIG. 9 follows. […] Trace (a) is recorded from a sample of Form I equilibrated to 75% relative humidity before sealing the sample container and exposing it to the 60° C. conditions in the calorimeter. Trace (b) is recorded for a sample of Form I at 60° C., but a 75% relative humidity "microhygrostat" is placed in the sample container just prior to recording the data. The conversion is delayed from that of trace (a) due to the fact that the water must be transported from the microhygrostat to the Form I crystals during the experiment. Trace (c) is recorded for a sample of Form I at 60° C., but the sample was equilibrated at 53% relative humidity prior to sealing the sample container.
# This trace results from placing a 75% relative humidity microhygrostat into the sample container just prior to recording the data. The sample is held at 40° C. in the calorimeter; the heat flow results as the Form I material converts to Form III.
structure (smiles),measurement,setting,value
"CN[C@@H](C)[C@@H]1CCN(c2c(F)cc3c(=O)c(C(=O)O)cn(C4CC4)c3c2OC)C1 [Form I, [S-(R*,S*)]-1-cyclopropyl-6-fluoro-1,4-dihydro-8-methoxy-7-[3-[1-(methylamino)ethyl]-1-pyrrolidinyl]-4-oxo-3-quinolinecarboxylic acid]","Solubility, concentration","[1]; 1 hour, 60 min",2.89 mg/mL and 2.78 mg/mL
same,"Solubility, concentration","[1]; 2 hours, 120 min",2.18 mg/mL and 2.99 mg/mL
same,"Solubility, concentration","[1]; 4.5 hours, 270 min",3.01 mg/mL and 3.11 mg/mL
same,"Solubility, concentration","[1]; 18 hours, 1080 min",3.02 mg/mL and 3.08 mg/mL
same,"Solubility, concentration","[1]; 24 hours, 1440 min",3.24 mg/mL and 3.32 mg/mL
same,"Solubility, concentration","[1]; 67.5 hours (not shaken after 24 hours), 4050 min",3.22 mg/mL and 3.24 mg/mL
same,"Conversion exotherm, beginning","[2]; 40° C, 75% RH microhygrostat",about 6 hours
same,"Conversion exotherm, end","[2]; 40° C, 75% RH microhygrostat",about 50 hours
same,"Rate of conversion Form I to Form III, dependence on humidity","[2]; 60° C, 51% vs 75% RH",slower at 51% RH than at 75% RH by about two orders of magnitude
same,"Integrated enthalpy change, low moisture sample","[2]; 60° C, after 80 hours, mixture of Forms I and III",about 10 J/g
same,Final state of high moisture sample (in words),"[2]; 60° C, equilibrated at 75% RH, by XRD and DSC",converted completely to Form III
same,Conversion of Form I to Form III under dry conditions (in words),[2]; > 7 days at 40° C./50% RH or 5 days at 60° C.,"did not convert to Form III under dry conditions, even after greater than 7 days at 40° C./50% RH or after 5 days at 60 °C"
same,Initial water content of Form I sample,[2]; before ITC at 40° C,0.54%
same,Conversion of Form I to Form III (in words),"[2]; equilibrated at 75% RH, 60° C",convert completely to Form III in less than one day at 60 °C
same,Conversion of Form I to Form III (in words),[2]; initial water activity at least 53% RH,direct conversion of Form I to Form III occurs without the formation of Form II
same,Lowest temperature at which conversion of Form I to Form III was observed,[2]; microcalorimeter,40 °C
